Test results taken from patent US11466054B2, “Inhibitors of metastasis” (BIOMARCK PHARMACEUTICALS LTD., priority 2013, dated 2022).
Where no end group is shown, it is not given here.

What was measured:
A549 = assay: Transwell migration assay, A549 cells; type: cell-based, human; settings: 12 hr
Description: The human adenocarcinoma-derived alveolar epithelial cell line A549 (an invasive cell line) was obtained from the American Type Culture Collection (ATCC) and was cultured in RPMI-1640 supplemented with 10% fetal bovine serum and 100 U/ml penicillin/streptomycin, in 75 cm^2 tissue culture flasks. The cells reached confluence by the third day of culture at 37° C. in an atmosphere of 95% air and 5% CO2 and were maintained by serial passage.
The test peptides (MANS, RNS, BIO-11006, BIO-11000, BIO-11002, BIO-91200, and BIO-10901) were dissolved in PBS at a pH of 7.0; slow vortex mixing for about two hours aided solubility.
Transwell plates (24-well, […]; Costar, Cambridge, Mass., USA) were used to conduct the migration assay. The lower chambers of the transwell plates were filled with 600 μl of basal medium containing 10% FBS. The cells (1×10^5) were suspended in 100 μl of basal medium containing 1% BSA and added to the upper chamber, and the plates incubated at 37° C. with 5% CO2 for 12 hr in PBS (control), or the indicated test peptides at 10, 25 or 50 μM. The cells on the upper surface of the filters were removed using cotton swabs. The cells that migrated to the lower surface of the filters were washed, fixed, and stained with hematoxylin and counted under the microscope. The percent change in migration is determined by counting the number of cells that migrated to the lower surface of the filters. At least four separate microscopic fields are counted per membrane, with a total of three replicate experiments at each concentration. The statistics software “Prizm” was used for data analysis.

PC-9 cells = assay: Orthotopic lung injection xenograph model, PC-9 cells in nude mice; type: in vivo; settings: 50 nmoles i.p. once every three days, 25 days
Description: The metastatic activity of cancer cells in vivo after treatment with MANS peptide or BIO-11006 was assessed in the orthotopic lung injection xenograph model. After pretreatment with either PBS, or PBS+MANS, BIO-11006 (SEQ ID NO: 106), or the control RNS peptide at 100 μM for 4 hours, PC-9 cells were injected into the left lobe of the lung of nude mice. Seven days later, these mice were given systemic treatment with either PBS only (Con), RNS (additional control peptide), MANS or BIO-11006 at 50 nmoles per intraperitoneal injection once every three days. At 25 days (6 injections) post-seeding of these tumor cells, mice were sacrificed and the number of metastasized tumor nodules in the contralateral lung and other organs was counted.

[1] = tested on: Human adenocarcinoma cells (PC-9); assay: Orthotopic lung cancer implantation model in SCID mice, aerosol from day 4 or day 15 (Example 5); type: in vivo; settings: for total number of tumor nodules found in all tissues: FIG. 14
Description: In this study, inhibition of lung cancer metastasis by BIO-11006 was investigated in an orthotopic lung cancer implantation model in SCID mice. Human adenocarcinoma cells (PC-9) (1-2×10^5) were suspended in 40 μL of PBS containing 0.5 mg/mL of Matrigel™ (BD Bioscience) and injected into the left lung of SCID mice (n=3) using a 29 gauge needle. BIO-11006 was administered starting either 4 days or 15 days post cancer cell inoculation by aerosol using 100 μM solution in PBS by Nebulizer Delivery System (Aeroneb Lab) over 30 min once daily for 25 days post cancer cell inoculation. At end of the experiment, the mice were sacrificed and lungs, heart, and diaphragm tissues collected and number of tumor nodules in each tissue measured. The results of this experiment are presented graphically in FIGS. 13 and 14. […] When the treatment was initiated at 15 days post inoculation of cancer cells, the inhibition of tumor metastasis was about 50% in the lungs, heart, and diaphragm. FIG. 14 depicts the total number of tumor nodules found in all tissues when peptide treatment was started at 15 days post cancer cell inoculation or 4 days post cancer cell inoculation.

CL1-5 cells = assay: Transwell migration assay, CL1-5 cells pretreated with peptide; type: cell-based, human; settings: 12 hours; for cell number: control approximately 105; for migration index: control=1.0;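 on migration index: index equals control cell count divided by treated cell count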
Description: CL1-5 cells, an aggressively metastatic cell line derived from a human adenocarcinoma, were cultured in RPMI 1640 media with 10% FBS, 37° C. at 95% […]/5% CO2 until ready for use. Transwell plates (24-well, 8-um pore size; Costar, Cambridge, Mass., USA) were used to conduct the migration assay. The lower chambers of the Transwell plates were filled with 600 μl of basal media containing 10% FBS. The cells (1×10^5) were pretreated with 50 or 100 μM of the indicated test peptide for 30 min, and then suspended in 100 μl of basal media containing 1% BSA and added to the upper chamber, and the cells then were incubated at 37° C. for 12 hr. The cells on the upper surface of the filters were removed using cotton swabs, and the cells that migrated to the lower surface of the filters were washed, fixed, and stained with hematoxylin and counted under the microscope. The percent change in migration was determined by counting the number of cells that migrated to the lower surface of the filters. At least 3 separate microscopic fields were counted per membrane (n=4).
Primary CL1-5 cells originated from human adenocarcinoma lung cancer Transwell plates with 24-wells, 8-μ pore size (Costar, Cambridge, Mass., USA) were used to conduct the migration assay. The lower chambers of the transwell plates were filled with 600 μL of basal media containing 10% FBS. The cells (1-2×10^5) were suspended in 100 μL of basal media containing 1% BSA. The test peptide at desired concentration was added to the upper chamber directly or after preincubation with cancer cells. The plates were then incubated at 37° C. for 12 hours. The cells on the upper surface of the filters were removed using cotton swabs. The cells that migrated to the lower surface of the filters were washed, fixed, and stained with hematoxylin and counted under the microscope. At least five separate microscopic fields are counted per membrane (n=3). The percent change in migration was determined by counting the number of cells that migrated to the lower surface of the filters.
The count means the actual number of cells which migrated to the lower chamber and counted by a light microscope at 40× magnification, presented as the mean number of cells in 10 randomly chosen fields for each treatment.
The “index” was calculated by dividing the number of cells that migrated in the presence of peptides by the number of cells that migrated randomly (control group). […]. This calculation can reflect the extent that the migration of cells was blocked by 30 minute pretreatment with MANS-related peptides.

[2] = aerosol 100 μM once daily, started 4 days post inoculation, FIG. 13
[3] = CL1-5, 50 μmolar pretreatment, FIG. 9
[4] = CL1-5, 100 μmolar pretreatment, FIG. 10

N-acetyl-GAQFSKTAAK (Ac-GAQFSKTAAK; listed as Homo sapiens) [BIO-11006]
cell numbers in comparison to control, RNS peptide and MANS peptide (A549; A549, 25 μm, FIG. 11): significantly reduced cell numbers | migration index numbers relative to control and to RNS peptide (A549; A549, 50 μm): increased migration index numbers | migrated cell numbers relative to control and to RNS peptide (A549; A549, 50 μm, FIG. 11): decreased migrated cell numbers | Metastases (affected mice/total mice) Diaphragm (PC-9 cells): 0/2 | Metastases (affected mice/total mice) Heart (PC-9 cells): 0/2 | Metastases (affected mice/total mice) Intestines (PC-9 cells): 0/2 | Metastases (affected mice/total mice) Spleen (PC-9 cells): 0/2 | No. of Metastatic Lung Tumors Mean ± SE (L't) (PC-9 cells; left lung): 0; 0 | No. of Metastatic Lung Tumors Mean ± SE (R't) (PC-9 cells; right lung): 0; 0 | Tumor Size (mm) Mean ± SE (PC-9 cells; tumor at site of injection, cells pretreated 100 μM 4 hours): 1.61 ± 0.37 mm | inhibition of tumor metastasis in the lungs, heart, and diaphragm ([1]; aerosol 100 μM once daily, initiated 15 days post inoculation, FIG. 13): about 50% | inhibition of tumor metastasis in the left lung, heart, and diaphragm [1, 2]: 60-90% | inhibition of tumor metastasis in the right lung [1, 2]: 100% | total number of tumor nodules found in all tissues ([1]; treatment starting at 4 days post cancer cell inoculation): even further reduced tumor nodules | total number of tumor nodules found in all tissues ([1]; treatment starting at 15 days post cancer cell inoculation): reduced tumor nodules | cell number (CL1-5 cells; [3]): approximately 50 | migration index (CL1-5 cells; [3]): approximately 2 | cell number (CL1-5 cells; [4]): approximately 50 | migration index (CL1-5 cells; [4]): approximately 2.1
